Test results as given in patent publication EP0726072A2, “Composition for the treatment of hypertension and congestive heart failure, containing an angiotensin II antagonist and an endopeptidase inhibitor” (BRISTOL-MYERS SQUIBB COMPANY, priority 1995, dated 1996).

System: 1K1C hypertensive dogs
Assay: Haemodynamic, renal and hormonal effects in conscious 1-kidney-1-clip hypertensive dogs
Format: in vivo
Description: The studies described in this experiment were conducted in dogs that had been rendered hypertensive by prior unilateral nephrectomy and constriction of the remaining renal artery. This model is characterized by normal basal levels of plasma renin activity and is relatively resistant to the anti-hypertensive activity of angiotensin converting enzyme inhibitors and AT1 receptor antagonists.
The following experiments were conducted in fasted 1K1C hypertensive dogs lightly restrained in standard canine slings. An indwelling arterial catheter was accessed via a subcutaneous port for measurement of blood pressure via a Gould-Statham pressure transducer. Mean arterial pressure (MAP) was continuously recorded on a Gould chart writer and stored electronically using a Po-Ne-Mah data acquisition system. During each study, urine was collected at 20 minute intervals via a Foley bladder catheter for determination of urine volume. The concentrations of urinary sodium and potassium were measured using ion-selective electrodes and their rates of urinary excretion (µEq/min) were calculated. Glomerular filtration rate (GFR) and effective renal plasma flow (ERPF) were determined by the renal clearances of exogenous creatinine and para-aminohippuric acid (PAH), respectively. The concentrations of creatinine and PAH in sequential samples of urine and plasma were determined by spectrophotometric assays and the clearances were calculated by the standard formula.
Arterial blood samples were drawn at the end of the control period and at 60 minute intervals thereafter for determination of the plasma concentrations of atrial natriuretic peptide (ANP), cyclic GMP and plasma renin activity (PRA) by separate radioimmunoassays. The plasma and urine samples were preserved and the assays were conducted according to standard radioimmunoassay procedures. Urinary excretion rates of cyclic GMP and ANP were calculated and expressed as pmol/min and fmol/min, respectively.
In each study, baseline measurements were obtained during two 20 minute control periods. One of the treatments was then administered and sampling continued at 20 minute intervals for three hours.
To minimize inter-animal variability, each data point was expressed as the change from the average control value for that parameter. Significant differences among treatments were identified by analysis of variance for repeated measures. […] Results are given as mean ± SEM.

[1] = 20 min after treatment, 30 µmol/kg iv of each agent
[2] = 40 min after treatment, 30 µmol/kg iv of each agent
[3] = 60 min after treatment, 30 µmol/kg iv of each agent
[4] = 80 min after treatment, 30 µmol/kg iv of each agent
[5] = 100 min after treatment, 30 µmol/kg iv of each agent
[6] = 120 min after treatment, 30 µmol/kg iv of each agent
[7] = 140 min after treatment, 30 µmol/kg iv of each agent
[8] = 160 min after treatment, 30 µmol/kg iv of each agent
[9] = 180 min after treatment, 30 µmol/kg iv of each agent

Q: `CCCCC1=NC2(CCCC2)C(=O)N1Cc1ccc(-c2ccccc2-c2nnn[nH]2)cc1` [BMS 186295, 2-butyl-6,7,8,9-tetrahydro-3-[[2'-(1H-tetrazol-5-yl)[1,1'-biphenyl]-4-yl]-methyl]-1,3-diazaspiro[4.4]nonan-4-one] was tested. Which “increase in the amount of sodium excreted during the 3 hours after injection” value (30 µmol/kg iv of each agent, cumulative over 3 hours) did it give?
A: Its value is 5.4±1.0 mEq/3 hr.

Q: And the “ANP Excretion, Change from control” value [1]?
A: Its value is -0.7 ± 0.5 fmol/min.

Q: What about the “Cyclic GMP Excretion, Change from control” value (“Cyclic GMP Excretion, Change” below) [1] of the same compound?
A: The value was -372 ± 240 pmol/min.

Q: And the “Effective Renal Plasma Flow, Change from control” value [1]?
A: Its value is -68 ± 30 mL/min.

Q: And the “Glomerular Filtration Rate, Change from control” value [1]?
A: The value was -4 ± 2 mL/min.

Q: What about the “Mean Arterial Pressure, Change from control” value (from here on “Mean Arterial Pressure, Change”) [1] of the same compound?
A: Its value is -1±1 mm Hg.

Q: What about the “Sodium Excretion, Change from control” value [1] of the same compound?
A: Its value is 23±9 µEq/min.

Q: And the “Urine Volume, Change from control” value [1]?
A: The value was 0.01 ± 0.07 mL/min.

Q: And the “ANP Excretion, Change from control” value [2]?
A: Its value is -0.6 ± 0.5 fmol/min.

Q: What about the “Cyclic GMP Excretion, Change” value [2] of the same compound?
A: Its value is -277 ± 255 pmol/min.

Q: And the “Effective Renal Plasma Flow, Change from control” value [2]?
A: Its value is -54 ± 35 mL/min.

Q: What about the “Glomerular Filtration Rate, Change from control” value [2] of the same compound?
A: Its value is -2 ± 5 mL/min.

Q: And the “Mean Arterial Pressure, Change” value [2]?
A: Its value is -10±1 mm Hg.

Q: What about the “Sodium Excretion, Change from control” value [2] of the same compound?
A: Its value is 41±13 µEq/min.

Q: And the “Urine Volume, Change from control” value [2]?
A: The value was 0.09 ± 0.14 mL/min.

Q: And the “ANP Excretion, Change from control” value [3]?
A: Its value is -0.2 ± 0.3 fmol/min.

Q: What about the “Cyclic GMP Excretion, Change” value [3] of the same compound?
A: The value was -150 ± 203 pmol/min.

Q: What about the “Effective Renal Plasma Flow, Change from control” value [3] of the same compound?
A: Its value is -35 ± 24 mL/min.

Q: What about the “Glomerular Filtration Rate, Change from control” value [3] of the same compound?
A: The value was 6 ± 0 mL/min.

Q: What about the “Mean Arterial Pressure, Change” value [3] of the same compound?
A: Its value is -8±2 mm Hg.

Q: And the “Plasma Renin Activity, Change from control” value (“Plasma Renin Activity, Change” for short) [3]?
A: The value was 1.28±0.51 pmol AI/ml/hr.

Q: And the “Sodium Excretion, Change from control” value [3]?
A: The value was 36±8 µEq/min.

Q: And the “Urine Volume, Change from control” value [3]?
A: The value was 0.12 ± 0.07 mL/min.

Q: And the “ANP Excretion, Change from control” value [4]?
A: The value was -0.4 ± 0.3 fmol/min.

Q: And the “Cyclic GMP Excretion, Change” value [4]?
A: The value was -309 ± 199 pmol/min.

Q: And the “Effective Renal Plasma Flow, Change from control” value [4]?
A: Its value is -13 ± 9 mL/min.

Q: What about the “Glomerular Filtration Rate, Change from control” value [4] of the same compound?
A: Its value is 5 ± 2 mL/min.

Q: And the “Mean Arterial Pressure, Change” value [4]?
A: The value was -5±2 mm Hg.

Q: And the “Sodium Excretion, Change from control” value [4]?
A: Its value is 27±6 µEq/min.

Q: What about the “Urine Volume, Change from control” value [4] of the same compound?
A: The value was 0.05 ± 0.06 mL/min.

Q: What about the “ANP Excretion, Change from control” value [5] of the same compound?
A: Its value is -0.6 ± 0.4 fmol/min.

Q: And the “Cyclic GMP Excretion, Change” value [5]?
A: Its value is -266 ± 193 pmol/min.

Q: And the “Effective Renal Plasma Flow, Change from control” value [5]?
A: The value was -1 ± 10 mL/min.

Q: What about the “Glomerular Filtration Rate, Change from control” value [5] of the same compound?
A: Its value is 3 ± 4 mL/min.

Q: What about the “Mean Arterial Pressure, Change” value [5] of the same compound?
A: Its value is -4±1 mm Hg.

Q: And the “Sodium Excretion, Change from control” value [5]?
A: Its value is 22±3 µEq/min.

Q: What about the “Urine Volume, Change from control” value [5] of the same compound?
A: Its value is -0.02 ± 0.09 mL/min.

Q: And the “ANP Excretion, Change from control” value [6]?
A: Its value is -0.5 ± 0.4 fmol/min.

Q: What about the “Cyclic GMP Excretion, Change” value [6] of the same compound?
A: Its value is -283 ± 236 pmol/min.

Q: And the “Effective Renal Plasma Flow, Change from control” value [6]?
A: Its value is -8 ± 17 mL/min.

Q: What about the “Glomerular Filtration Rate, Change from control” value [6] of the same compound?
A: The value was 4 ± 3 mL/min.

Q: What about the “Mean Arterial Pressure, Change” value [6] of the same compound?
A: The value was -1±2 mm Hg.

Q: And the “Plasma Renin Activity, Change” value [6]?
A: The value was 1.49±0.57 pmol AI/ml/hr.

Q: What about the “Sodium Excretion, Change from control” value [6] of the same compound?
A: Its value is 30±4 µEq/min.

Q: And the “Urine Volume, Change from control” value [6]?
A: The value was -0.02 ± 0.10 mL/min.

Q: What about the “ANP Excretion, Change from control” value [7] of the same compound?
A: The value was -0.6 ± 0.4 fmol/min.

Q: And the “Cyclic GMP Excretion, Change” value [7]?
A: Its value is -449 ± 206 pmol/min.

Q: And the “Effective Renal Plasma Flow, Change from control” value [7]?
A: The value was 8 ± 3 mL/min.

Q: And the “Glomerular Filtration Rate, Change from control” value [7]?
A: The value was 0 ± 5 mL/min.

Q: And the “Mean Arterial Pressure, Change” value [7]?
A: Its value is -1±2 mm Hg.

Q: And the “Sodium Excretion, Change from control” value [7]?
A: The value was 28±7 µEq/min.

Q: And the “Urine Volume, Change from control” value [7]?
A: The value was -0.07 ± 0.12 mL/min.

Q: What about the “ANP Excretion, Change from control” value [8] of the same compound?
A: Its value is -0.5 ± 0.4 fmol/min.

Q: And the “Cyclic GMP Excretion, Change” value [8]?
A: Its value is -391 ± 199 pmol/min.

Q: And the “Effective Renal Plasma Flow, Change from control” value [8]?
A: The value was -14 ± 12 mL/min.

Q: And the “Glomerular Filtration Rate, Change from control” value [8]?
A: The value was 0 ± 7 mL/min.

Q: What about the “Mean Arterial Pressure, Change” value [8] of the same compound?
A: The value was 0±2 mm Hg.

Q: And the “Sodium Excretion, Change from control” value [8]?
A: The value was 30±7 µEq/min.

Q: What about the “Urine Volume, Change from control” value [8] of the same compound?
A: The value was -0.07 ± 0.16 mL/min.

Q: And the “ANP Excretion, Change from control” value [9]?
A: Its value is -0.6 ± 0.4 fmol/min.

Q: What about the “Cyclic GMP Excretion, Change” value [9] of the same compound?
A: The value was -611 ± 346 pmol/min.

Q: And the “Effective Renal Plasma Flow, Change from control” value [9]?
A: The value was -12 ± 11 mL/min.

Q: And the “Glomerular Filtration Rate, Change from control” value [9]?
A: The value was 0 ± 4 mL/min.

Q: What about the “Mean Arterial Pressure, Change” value [9] of the same compound?
A: Its value is -1±3 mm Hg.

Q: What about the “Plasma Renin Activity, Change” value [9] of the same compound?
A: Its value is 1.24±0.62 pmol AI/ml/hr.

Q: And the “Sodium Excretion, Change from control” value [9]?
A: The value was 30±2 µEq/min.

Q: What about the “Urine Volume, Change from control” value [9] of the same compound?
A: The value was -0.02 ± 0.07 mL/min.

Q: What about the “ANP Excretion” value (Control, before treatment) of the same compound?
A: Its value is 1.5 ± 0.6 fmol/min.

Q: What about the “Cyclic GMP Excretion” value (Control, before treatment) of the same compound?
A: Its value is 1122 ± 389 pmol/min.

Q: And the “Effective Renal Plasma Flow” value (Control, before treatment)?
A: The value was 127 ± 41 mL/min.

Q: What about the “Glomerular Filtration Rate” value (Control, before treatment) of the same compound?
A: Its value is 45 ± 10 mL/min.

Q: And the “Mean Arterial Pressure” value (Control, before treatment)?
A: Its value is 157±7 mm Hg.

Q: What about the “Plasma Renin Activity” value (Control, before treatment) of the same compound?
A: The value was 0.55±0.07 pmol AI/ml/hr.

Q: And the “Sodium Excretion” value (Control, before treatment)?
A: The value was 18±2 µEq/min.

Q: And the “Urine Volume” value (Control, before treatment)?
A: Its value is 0.43 ± 0.16 mL/min.

Q: And the “sodium excretion, effect in words” value (summary of TABLE 2, 30 µmol/kg iv of each agent, 3 hours)?
A: Its value is “increased”.

Q: And the “urine volume, effect in words” value (summary of TABLE 3, 30 µmol/kg iv of each agent, 3 hours)?
A: Its value is “increased”.

Q: What about the “Urinary excretion of ANP, effect in words” value (summary of TABLE 6, 30 µmol/kg iv of each agent) of the same compound?
A: Its value is “did not affect”.

Q: And the “PRA, effect in words” value (summary of TABLE 8, 30 µmol/kg iv of each agent)?
A: The value was “significantly increased”.

Q: What about the “mean arterial pressure (MAP), effect in words” value (summary of Table 1, 30 µmol/kg iv of each agent, 3 hours) of the same compound?
A: The value was “signigicantly reduced”.
